Reference: patent publication US7105534B2, “Imidazo[1,2-α]pyridine ether compounds as ion channel modulators” (Cardiome Pharma Corp., priority 2000, dated 2006)
Where a name gives a salt, the structure may show the parent alone.

Tests used:
[1] = test system: CD-1 mice; experiment: Assessment of pain blockage: pin prick, mouse tail; format: in vivo; settings: injection into lateral tail vein with tourniquet
Description: CD-1 mice (20–30 g) are restrained in an appropriate holder. A tourniquet is placed at the base of the tail and a solution of the test compound (50 μl, 5 mg/ml) is injected into the lateral tail vein. The tourniquet is removed 10 min after the injection. Suitable dilutions of compound solution are used to obtain an ED50 for pain blockade at various times after injection. Pain responses are assessed by pin prick at regular intervals up to 4 hours post injection and the duration of pain blockage is recorded for three animals for each test compound solution. Compounds of the present invention may be evaluated according to the method described.

[2] = target: T1, Kv4.2 (Homo sapiens, UniProt Q9NZV8); experiment: Patch-clamp inhibition of cloned ion channel current in transfected HEK cells: Kv4.2; format: cell-based; settings: integrated current, -80 mV to +60 mV
T1 construct: expressed in transfected cells; host or cells: HEK cells, transient transfection, vector pCDNA3
T1 sequence (Q9NZV8 1-630): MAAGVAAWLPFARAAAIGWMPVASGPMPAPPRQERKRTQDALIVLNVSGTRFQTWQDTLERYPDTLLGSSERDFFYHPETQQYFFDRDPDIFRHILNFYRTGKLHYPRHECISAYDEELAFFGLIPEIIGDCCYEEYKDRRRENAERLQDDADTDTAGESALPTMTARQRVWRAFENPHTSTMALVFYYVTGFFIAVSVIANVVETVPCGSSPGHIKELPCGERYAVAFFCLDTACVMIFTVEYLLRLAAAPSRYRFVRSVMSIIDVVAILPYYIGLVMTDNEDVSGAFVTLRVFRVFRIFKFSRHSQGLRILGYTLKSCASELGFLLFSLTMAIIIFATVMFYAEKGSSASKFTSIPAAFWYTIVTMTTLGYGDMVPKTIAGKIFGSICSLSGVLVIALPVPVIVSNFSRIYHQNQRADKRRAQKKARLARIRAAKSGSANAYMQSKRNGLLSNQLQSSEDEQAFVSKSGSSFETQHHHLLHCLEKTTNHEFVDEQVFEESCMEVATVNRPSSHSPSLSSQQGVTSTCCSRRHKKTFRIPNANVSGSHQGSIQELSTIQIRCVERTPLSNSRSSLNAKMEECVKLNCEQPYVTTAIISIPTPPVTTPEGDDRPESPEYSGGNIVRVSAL
Description: (§1) The relevant cloned ion channels (e.g. cardiac hH1, Kv1.4, Kv1.5, Kv4.2, Kv2.1, HERG etc.) are studied by transient transfection into HEK cells using the mammalian expression vector pCDNA3. Transfections for each channel type are carried out separately to allow individual study of the ion channel of interest. Cells expressing channel protein are detected by cotransfecting cells with the vector pHook-1 (Invitrogen, San Diego, Calif., USA). […] Equal concentrations of individual channel and pHook DNA are incubated with 10× concentration of lipofectAce in Modified Eagle's Medium (MEM, Canadian Life Technologies) and incubated with parent HEK cells plated on 25 mm culture dishes. After 3–4 hours the solution is replaced with a standard culture medium plus 20% fetal bovine serum and 1% antimycotic. Transfected cells are maintained at 37C in an air/5% CO2 incubator in 25 mm Petri dishes plated on glass coverslips for 24–48 hours to allow channel expression to occur. 20 min prior to experiments, cells are treated with beads coated with phOX. After 15 min, excess beads are […] off with cell culture medium and cells which had beads stuck to them are used for electrophysiological tests.
(§2) For whole-cell recording the control pipette filling solution contained (in mM): KCl, 130; EGTA, 5; MgCl2, 1; HEPES, 10; Na2ATP, 4; GTP, 0.1; and is adjusted to pH 7.2 with KOH. The control bath solution contained (in mM): NaCl, 135; KCI, 5; sodium acetate, 2.8; MgCl2, 1; HEPES, 10; CaCl2, 1; and is adjusted to pH 7.4 with NaOH. The test ion channel modulating compound is dissolved to 10 mM stock solutions in water and used at concentrations between 0.5 and 100 μM.
(§3) Coverslips containing cells are removed from the incubator before experiments and placed in a superfusion chamber (volume 250 μl) containing the control bath solution at 22C to 23C. All recordings are made via the variations of the patch-clamp technique, using an Axopatch 200A amplifier (Axon Instruments, CA). Patch electrodes are pulled from thin-walled borosilicate glass (World Precision Instruments; FL) on a horizontal micropipette puller, fire-polished, and filled with appropriate solutions. Electrodes had resistances of […] when filled with control filling solution. Analog capacity compensation is used in all whole cell measurements. In some experiments, leak subtraction is applied to data. Membrane potentials have not been corrected for any junctional potentials that arose between the pipette and bath solution. Data are filtered at 5 to 10 kHz before digitization and stored on a microcomputer for later analysis using the pClamp6 software (Axon Instruments, Foster City, Calif.). Due to the high level of expression of channel cDNA's in HEK cells, there is no need for signal averaging. The average cell capacitance is quite small, and the absence of ionic current at negative membrane potentials allowed faithful leak subtraction of data.
(§4) The concentration-response curves for changes in peak and steady-state current produced by the test compound are computer-fitted to the Hill equation: f=1−1/[1+([…])^n] [1]
(§5) where f is the fractional current (f=Idrug/Icontrol) at drug concentration [D]; IC50 is the concentration producing half-maximal inhibition and n is the Hill coefficient.
(§6) Compounds of the present invention may be evaluated by this method. […] Block is determined from the decrease in peak hH1 Na^+ current, or in steady-state Kv1.5 and integrated Kv4.2 current in the presence of drug. To record Na^+ current, cells are depolarized from the holding potential of −100 mV to a voltage of −30 mV for 10 ms to fully open and inactivate the channel. To record Kv1.5 and Kv4.2 current, cells are depolarized from the holding potential of −80 mV to a voltage of +60 mV for 200 ms to fully open the channel. Currents are recorded in the steady-state at a range of drug concentrations during stimulation every 4 s. […]

[3] = target: T2, Kv1.5 (Homo sapiens, UniProt P22460); experiment: Patch-clamp inhibition of cloned ion channel current in transfected HEK cells: Kv1.5; format: cell-based; settings: steady-state current, -80 mV to +60 mV
T2 construct: expressed in transfected cells; host or cells: HEK cells, transient transfection, vector pCDNA3
Description: as §1, §2, §3, §4, §5, §6

[4] = target: T3, hH1 Na+ current (Homo sapiens, UniProt Q14524); experiment: Patch-clamp inhibition of cloned ion channel current in transfected HEK cells: Na; format: cell-based; settings: peak hH1 Na+ current, -100 mV to -30 mV
T3 construct: expressed in transfected cells; host or cells: HEK cells, transient transfection, vector pCDNA3
Description: as §1, §2, §3, §4, §5, §6

[5] = test system: Sprague Dawley rats; experiment: Cardiovascular and behavioral effects: ECG changes during i.v. infusion in conscious rats; format: in vivo, rat
Description: Preparative surgery is performed in Sprague Dawley rats weighing 200–300 gm and anaesthetized with 65 mg/kg (i.p.) pentobarbital. The femoral artery and vein are cannulated using polyethylene (PE)-10 tubing. Prior to surgery, this PE-10 tubing had been annealed to a wider gauge (PE-50) tubing for externalization. The cannulated PE-10/PE-50 tubing is passed through a trocar and exteriorised together with three (lead II) limb ECG leads (see below). The trocar is threaded under the skin of the back and out through a small incision at the mid-scapular region. A ground ECG electrode is inserted subcutaneously using a 20 gauge needle with the lead wire threaded through it. To place the other ECG electrodes, a small incision is made in the anterior chest region over the heart and ECG leads are inserted into the subcutaneous muscle layer in the region of the heart using a 20 guage needle. Other ECG leads are inserted into the subcutaneous muscle layer in the region near the base of the neck and shoulder (right side). The animal is returned to a clean recovery-cage with free access to food and water. The treatment and observational period for each animal commenced after a 24-hour recovery period.
A 15 min observational period is recorded followed by the intravenous infusion regime of the test compound at an initial dose of 2.0 μmol/kg/min (at 1 ml/hr). This rate is doubled every 5 minutes until one of the following effects is observed:
Blood pressure (BP), heart rate (HR) and ECG variables are continuously recorded while behavioral responses are also monitored and the total accumulative drug dose and drug infusion rate at which the response (such as convulsion, piloerection, ataxia, restlessness, compulsive chewing, lip-smacking, wet dog shake etc.) occurred are recorded.
Electrocardiograph (ECG) parameters: PR, QRS, QT1 (peak of T-wave), QT2 (midpoint of T-wave deflection) and hemodynamic parameters: BP and HR are analyzed using the automated analysis function in LabView (National Instruments) with a customized autoanalysis software (Nortran Pharmaceuticals). The infused dose producing 25% from control (D25) for all recorded ECG variables is determined.
Table 2 describes the results of the tests as D25 (micromol/kg) which are the doses required to produce a 25% increase in the ECG parameter measured (ne=not estimated). The increases in P-R interval and QRS interval indicate cardiac sodium channel blockade while the increase in Q-T interval indicates cardiac potassium channel blockade.

[6] = target: T4, HERG (Homo sapiens, UniProt Q12809); experiment: Patch-clamp inhibition of cloned ion channel current in transfected HEK cells: HERG; format: cell-based; settings: whole-cell patch clamp
T4 construct: expressed in transfected cells; host or cells: HEK cells, transient transfection, vector pCDNA3
Description: as §1, §2, §3, §4, §5, §6

[7] = test system: Mongrel dogs; experiment: Canine vagal-AF model: termination of sustained atrial fibrillation; format: in vivo, dog; settings: IV
Description: Mongrel dogs of either sex weighing 15-49 kg are anesthetized with morphine (2 mg/kg im initially, followed by 0.5 mg/kg IV every 2 h) and α-chloralose (120 mg/kg IV followed by an infusion of 29.25 mg/kg/h; St.-Georges et al., 1997). Dogs are ventilated mechanically with room air supplemented with oxygen via an endotracheal tube at 20 to 25 breaths/minute with a tidal volume obtained from a nomogram. […] Catheters are inserted into the femoral artery for blood pressure recording and blood gas measurement, and into both femoral veins for drug administration and venous sampling. Catheters are kept patent with heparinized 0.9% saline solution. Body temperature is maintained at 37-40° C. with a heating blanket. […] Drug effects to terminate sustained AF maintained during continuous vagal nerve stimulation are assessed. […] The vagal stimulation voltage is adjusted under control conditions, and then readjusted after each treatment to maintain the same bradycardic effect. […] Diastolic threshold current is determined at a basic cycle length of 300 ms by increasing the current 0.1 mA incrementally until stable capture is obtained. […] Atrial and ventricular ERP is measured with the extrastimulus method, over a range of S1S2 intervals at a basic cycle length of 300 ms. […] Diastolic threshold and ERP are determined in duplicate and averaged to give a single value. […]

[8] = indicates cardiac sodium channel blockade

T3 sequence (Q14524 whole entry): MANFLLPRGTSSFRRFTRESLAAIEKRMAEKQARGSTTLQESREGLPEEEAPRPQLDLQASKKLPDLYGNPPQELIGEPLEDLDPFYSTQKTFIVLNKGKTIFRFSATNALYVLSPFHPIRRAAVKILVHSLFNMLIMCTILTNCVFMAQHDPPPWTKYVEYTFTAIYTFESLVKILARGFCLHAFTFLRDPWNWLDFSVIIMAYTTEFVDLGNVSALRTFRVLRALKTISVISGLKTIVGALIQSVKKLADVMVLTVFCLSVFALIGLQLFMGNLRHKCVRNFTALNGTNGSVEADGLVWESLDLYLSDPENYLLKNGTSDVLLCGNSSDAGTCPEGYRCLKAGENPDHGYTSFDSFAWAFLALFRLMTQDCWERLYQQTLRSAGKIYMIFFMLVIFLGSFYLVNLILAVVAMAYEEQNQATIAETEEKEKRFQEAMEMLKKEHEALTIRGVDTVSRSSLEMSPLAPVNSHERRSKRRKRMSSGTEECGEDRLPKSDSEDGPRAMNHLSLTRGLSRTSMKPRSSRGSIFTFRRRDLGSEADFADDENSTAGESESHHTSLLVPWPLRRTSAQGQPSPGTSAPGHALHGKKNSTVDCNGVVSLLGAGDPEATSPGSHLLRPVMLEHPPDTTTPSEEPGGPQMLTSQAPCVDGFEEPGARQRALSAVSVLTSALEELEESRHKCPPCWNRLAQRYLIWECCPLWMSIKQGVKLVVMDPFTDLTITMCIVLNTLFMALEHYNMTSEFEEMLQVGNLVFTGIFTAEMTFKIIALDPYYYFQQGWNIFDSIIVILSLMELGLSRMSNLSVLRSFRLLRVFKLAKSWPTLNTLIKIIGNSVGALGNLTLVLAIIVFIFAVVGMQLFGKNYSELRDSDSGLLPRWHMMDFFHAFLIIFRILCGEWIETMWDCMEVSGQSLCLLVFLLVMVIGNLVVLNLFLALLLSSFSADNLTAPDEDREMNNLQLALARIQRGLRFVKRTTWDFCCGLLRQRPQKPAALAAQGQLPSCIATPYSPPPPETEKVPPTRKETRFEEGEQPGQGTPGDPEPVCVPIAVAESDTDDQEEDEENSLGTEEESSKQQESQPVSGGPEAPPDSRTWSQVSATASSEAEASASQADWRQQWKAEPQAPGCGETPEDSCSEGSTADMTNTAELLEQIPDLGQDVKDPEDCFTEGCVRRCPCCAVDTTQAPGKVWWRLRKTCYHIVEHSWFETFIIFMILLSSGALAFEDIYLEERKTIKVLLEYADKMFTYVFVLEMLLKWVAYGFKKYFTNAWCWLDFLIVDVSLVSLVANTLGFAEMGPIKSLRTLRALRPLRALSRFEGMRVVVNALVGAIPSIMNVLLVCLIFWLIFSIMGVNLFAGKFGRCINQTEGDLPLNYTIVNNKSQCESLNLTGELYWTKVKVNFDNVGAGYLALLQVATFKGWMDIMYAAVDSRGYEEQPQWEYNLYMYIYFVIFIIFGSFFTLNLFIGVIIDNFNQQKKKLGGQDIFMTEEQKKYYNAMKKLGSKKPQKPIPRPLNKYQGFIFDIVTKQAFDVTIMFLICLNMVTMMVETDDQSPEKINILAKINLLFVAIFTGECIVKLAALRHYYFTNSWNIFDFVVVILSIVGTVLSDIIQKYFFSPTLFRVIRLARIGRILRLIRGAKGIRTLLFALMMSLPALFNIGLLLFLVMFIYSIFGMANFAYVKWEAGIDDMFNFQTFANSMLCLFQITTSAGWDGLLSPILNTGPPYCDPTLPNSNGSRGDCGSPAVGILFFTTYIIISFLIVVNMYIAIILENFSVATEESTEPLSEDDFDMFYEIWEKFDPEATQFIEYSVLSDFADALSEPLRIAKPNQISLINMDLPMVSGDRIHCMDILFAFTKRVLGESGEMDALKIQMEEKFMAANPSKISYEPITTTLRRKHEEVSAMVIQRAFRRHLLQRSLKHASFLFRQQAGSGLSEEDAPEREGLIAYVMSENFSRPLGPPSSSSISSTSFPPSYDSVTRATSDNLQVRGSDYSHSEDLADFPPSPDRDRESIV
T4 sequence (Q12809 whole entry): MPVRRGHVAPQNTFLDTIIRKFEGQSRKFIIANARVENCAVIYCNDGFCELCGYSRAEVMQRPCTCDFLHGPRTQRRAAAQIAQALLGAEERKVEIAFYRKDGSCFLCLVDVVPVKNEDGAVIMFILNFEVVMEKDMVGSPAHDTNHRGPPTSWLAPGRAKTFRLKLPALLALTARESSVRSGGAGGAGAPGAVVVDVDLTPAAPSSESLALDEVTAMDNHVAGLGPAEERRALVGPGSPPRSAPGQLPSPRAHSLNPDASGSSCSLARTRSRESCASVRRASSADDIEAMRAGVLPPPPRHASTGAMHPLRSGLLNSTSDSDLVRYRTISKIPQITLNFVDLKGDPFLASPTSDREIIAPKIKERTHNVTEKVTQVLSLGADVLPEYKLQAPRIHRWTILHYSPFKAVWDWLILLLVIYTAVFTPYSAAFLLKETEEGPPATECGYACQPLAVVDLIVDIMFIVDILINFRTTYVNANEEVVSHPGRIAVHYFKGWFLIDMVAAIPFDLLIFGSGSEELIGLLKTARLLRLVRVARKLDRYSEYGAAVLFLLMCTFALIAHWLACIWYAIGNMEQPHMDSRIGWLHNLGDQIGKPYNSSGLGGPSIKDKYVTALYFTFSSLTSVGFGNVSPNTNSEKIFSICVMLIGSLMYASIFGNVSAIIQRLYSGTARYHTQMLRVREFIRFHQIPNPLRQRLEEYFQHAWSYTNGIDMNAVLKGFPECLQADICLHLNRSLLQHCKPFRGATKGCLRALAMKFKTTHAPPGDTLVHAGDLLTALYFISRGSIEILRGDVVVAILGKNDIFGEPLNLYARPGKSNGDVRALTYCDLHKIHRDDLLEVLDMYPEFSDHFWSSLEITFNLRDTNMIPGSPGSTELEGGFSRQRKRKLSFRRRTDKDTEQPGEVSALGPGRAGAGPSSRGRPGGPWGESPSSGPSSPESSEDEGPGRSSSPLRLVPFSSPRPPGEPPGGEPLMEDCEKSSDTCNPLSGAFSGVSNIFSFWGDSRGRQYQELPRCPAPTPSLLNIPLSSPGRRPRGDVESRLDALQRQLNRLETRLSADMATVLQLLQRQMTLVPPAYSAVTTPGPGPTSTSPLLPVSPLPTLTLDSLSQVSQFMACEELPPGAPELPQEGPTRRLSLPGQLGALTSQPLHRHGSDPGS
T2 sequence (P22460 whole entry): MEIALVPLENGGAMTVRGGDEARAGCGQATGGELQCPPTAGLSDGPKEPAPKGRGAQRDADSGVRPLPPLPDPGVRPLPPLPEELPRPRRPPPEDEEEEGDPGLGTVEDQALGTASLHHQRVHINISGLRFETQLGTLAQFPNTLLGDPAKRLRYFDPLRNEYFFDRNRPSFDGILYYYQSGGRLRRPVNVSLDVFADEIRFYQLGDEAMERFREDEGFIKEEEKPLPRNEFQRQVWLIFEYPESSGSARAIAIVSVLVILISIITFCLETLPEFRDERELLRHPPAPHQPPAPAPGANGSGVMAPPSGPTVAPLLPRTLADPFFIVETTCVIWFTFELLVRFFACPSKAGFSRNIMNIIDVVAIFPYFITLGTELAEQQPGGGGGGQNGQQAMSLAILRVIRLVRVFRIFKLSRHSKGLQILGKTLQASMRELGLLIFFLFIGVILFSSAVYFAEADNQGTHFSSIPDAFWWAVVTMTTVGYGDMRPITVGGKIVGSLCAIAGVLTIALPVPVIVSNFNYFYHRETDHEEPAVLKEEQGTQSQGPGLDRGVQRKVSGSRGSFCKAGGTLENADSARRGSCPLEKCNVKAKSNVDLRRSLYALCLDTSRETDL

## Cc1cn2cccc(OCCCc3ccc(Cl)cc3Cl)c2n1 (as salt: hydrochloride) [Compound 1, 8-[3-(2,4-DICHLOROPHENYL)PROPOXY]-2-METHYLIMIDAZO[1,2-α]PYRIDINEMONOHYDROCHLORIDE]
other
  melting point: < 193 °C

## Cc1cn2cccc(OCCCc3ccc(Cl)cc3Cl)c2n1 [Compound 1, 8-[3-(2,4-DICHLOROPHENYL)PROPOXY]-2-METHYLIMIDAZO[1,2-α]PYRIDINEMONOHYDROCHLORIDE]
[1]
  ED50 for pain blockade: 0.073 mg/tail
[2]
  IC50: 2000 nM
[3]
  IC50: 300 nM
[4]
  IC50: 8000 nM
[5]; indicates cardiac potassium channel blockade
  D25 QT (dose required to produce a 25% increase in Q-T interval): 8 µmol/kg
[5]; [8]
  D25 PR (dose required to produce a 25% increase in P-R interval): 14 µmol/kg
  D25 QRS (dose required to produce a 25% increase in QRS interval): 12 µmol/kg
[6]
  IC50: 100 nM

## O=C(NCC1CCCCN1)c1cc(OCC(F)(F)F)ccc1OCC(F)(F)F (centres unmarked) [Flecainide]
[7]
  Median dose required for termination of AF: 2.5 µmol/kg
[7]; mean ±SEM
  Mean dose required for termination of AF: 4 ± 2 µmol/kg
